In one assay the test system is HeLa. The assay can be described thus: Cytotoxicity against human HeLa cells. The class given is functional.
A further assay has as its system MCF7. The experiment in a line: Cytotoxicity against human MCF7 cells. The format is functional.

The structures appear in SMILES notation. A value given as a limit tells only on which side of the number the result lay.

As usually defined, the GI50 is the concentration that inhibits growth by half. Take `CC[C@]1(O)C[C@@H]2CN(CCc3c([nH]c4ccccc34)[C@@](C(=O)OC)(c3cc4c(cc3OC)N(C)[C@H]3[C@@](O)(C(=O)OC)[C@H](OC(C)=O)[C@]5(CC)C=CCN6CC[C@]43[C@@H]65)C2)C1` [VINBLASTINE]: the results for the GI50 with HeLa and with MCF7 were 0.9 nM and 0.4 nM, respectively.
Consider `CC[C@]1(O)C[C@H]2CN(CCc3c([nH]c4ccc(N5CCCCC5)cc34)[C@@](C(=O)OC)(c3cc4c(cc3OC)N(C)[C@H]3[C@@](O)(C(=O)OC)[C@H](OC(C)=O)[C@]5(CC)CC=CN6CC[C@]43[C@@H]65)C2)C1`, for which the GI50 is 20 nM in the assay with HeLa and 30 nM with MCF7.
Turning to `CC[C@]1(O)C[C@H]2CN(CCc3c([nH]c4ccc(C(=O)OC)cc34)[C@@](C(=O)OC)(c3cc4c(cc3OC)N(C)[C@H]3[C@@](O)(C(=O)OC)[C@H](OC(C)=O)[C@]5(CC)CC=CN6CC[C@]43[C@@H]65)C2)C1`, the figures for the GI50 with HeLa and in the assay on MCF7 were 20 nM and 30 nM, respectively.
Regarding `CCC1=C[C@H]2CN(C1)Cc1c([nH]c3ccc(C(=O)O)cc13)[C@@](C(=O)OC)(c1cc3c(cc1OC)N(C)[C@H]1[C@@](O)(C(=O)OC)[C@H](OC(C)=O)[C@]4(CC)CC=CN5CC[C@]31[C@@H]54)C2`, the GI50 in the assay on HeLa and in the assay with MCF7 was > 1000 nM in each case.
Take `CCC1=C[C@H]2CN(C1)Cc1c([nH]c3ccc(C#N)cc13)[C@@](C(=O)OC)(c1cc3c(cc1OC)N(C)[C@H]1[C@@](O)(C(=O)OC)[C@H](OC(C)=O)[C@]4(CC)CC=CN5CC[C@]31[C@@H]54)C2`: the GI50 in the assay with HeLa was 1 nM; with MCF7 it was 6 nM.
For `CC[C@]1(O)C[C@H]2CN(CCc3c([nH]c4ccc(-c5ccccc5)cc34)[C@@](C(=O)OC)(c3cc4c(cc3OC)N(C=O)[C@H]3[C@@](O)(C(=O)OC)[C@H](OC(C)=O)[C@]5(CC)CC=CN6CC[C@]43[C@@H]65)C2)C1`, the GI50 in the assay on HeLa was 50 nM; with MCF7, 35 nM.
As to `CCC1=C[C@H]2CN(C1)Cc1c([nH]c3ccc(C(N)=O)cc13)[C@@](C(=O)OC)(c1cc3c(cc1OC)N(C)[C@H]1[C@@](O)(C(=O)OC)[C@H](OC(C)=O)[C@]4(CC)CC=CN5CC[C@]31[C@@H]54)C2`, the 50% growth inhibitory concentration (GI50) in the assay on HeLa and in the assay on MCF7 was > 1000 nM each time.
Take `CC[C@]1(O)C[C@H]2CN(CCc3c([nH]c4ccc(C#N)cc34)[C@@](C(=O)OC)(c3cc4c(cc3OC)N(C=O)[C@H]3[C@@](O)(C(=O)OC)[C@H](OC(C)=O)[C@]5(CC)CC=CN6CC[C@]43[C@@H]65)C2)C1`: the GI50 was 10 nM in the assay with HeLa and 4 nM in the assay with MCF7.
`CCc1ccc2[nH]c3c(c2c1)CCN1C[C@H](C[C@@](O)(CC)C1)C[C@]3(C(=O)OC)c1cc2c(cc1OC)N(C)[C@H]1[C@@](O)(C(=O)OC)[C@H](OC(C)=O)[C@]3(CC)CC=CN4CC[C@]21[C@@H]43`: the values for the GI50 with HeLa and in the assay with MCF7 were 0.3 nM and 0.6 nM, respectively.
On to `CCC1=C[C@H]2CN(C1)Cc1c([nH]c3ccc(-c4cccc(F)c4)cc13)[C@@](C(=O)OC)(c1cc3c(cc1OC)N(C)[C@H]1[C@@](O)(C(=O)OC)[C@H](OC(C)=O)[C@]4(CC)CC=CN5CC[C@]31[C@@H]54)C2`, for which the GI50 with HeLa and in the assay on MCF7 was > 1000 nM throughout.
With `C#Cc1ccc2[nH]c3c(c2c1)CN1CC(CC)=C[C@@H](C1)C[C@]3(C(=O)OC)c1cc2c(cc1OC)N(C)[C@H]1[C@@](O)(C(=O)OC)[C@H](OC(C)=O)[C@]3(CC)CC=CN4CC[C@]21[C@@H]43`, the GI50 with HeLa turned out to be 0.4 nM; in the assay with MCF7, 5 nM.
For `CC[C@]1(O)C[C@H]2CN(CCc3c([nH]c4ccc(SC)cc34)[C@@](C(=O)OC)(c3cc4c(cc3OC)N(C=O)[C@H]3[C@@](O)(C(=O)OC)[C@H](OC(C)=O)[C@]5(CC)CC=CN6CC[C@]43[C@@H]65)C2)C1`, the GI50 in the assay on HeLa and with MCF7 was 3 nM throughout.
As for `CC[C@]1(O)C[C@H]2CN(CCc3c([nH]c4ccc(-c5nccs5)cc34)[C@@](C(=O)OC)(c3cc4c(cc3OC)N(C)[C@H]3[C@@](O)(C(=O)OC)[C@H](OC(C)=O)[C@]5(CC)CC=CN6CC[C@]43[C@@H]65)C2)C1`, the figures for the GI50 in the assay on HeLa and in the assay on MCF7 were 200 nM and 100 nM, respectively.
`CC[C@]1(O)C[C@H]2CN(CCc3c([nH]c4ccc(C#N)cc34)[C@@](C(=O)OC)(c3cc4c(cc3OC)N(C)[C@H]3[C@@](O)(C(=O)OC)[C@H](OC(C)=O)[C@]5(CC)CC=CN6CC[C@]43[C@@H]65)C2)C1`: the GI50 in the assay with HeLa and in the assay with MCF7 was 3 nM throughout.
With `CCc1ccc2[nH]c3c(c2c1)CCN1C[C@H](C[C@@](O)(CC)C1)C[C@]3(C(=O)OC)c1cc2c(cc1OC)N(C=O)[C@H]1[C@@](O)(C(=O)OC)[C@H](OC(C)=O)[C@]3(CC)CC=CN4CC[C@]21[C@@H]43`, the GI50 in the assay with HeLa was found to be 5 nM; in the assay with MCF7, 10 nM.
As for `CC[C@]1(O)C[C@H]2CN(CCc3c([nH]c4ccc(SCC(=O)O)cc34)[C@@](C(=O)OC)(c3cc4c(cc3OC)N(C)[C@H]3[C@@](O)(C(=O)OC)[C@H](OC(C)=O)[C@]5(CC)CC=CN6CC[C@]43[C@@H]65)C2)C1`, the GI50 with HeLa came to 50 nM; with MCF7, 200 nM.
In the same order, the values of `CC[C@]1(O)C[C@H]2CN(CCc3c([nH]c4ccc(-c5cccc(F)c5)cc34)[C@@](C(=O)OC)(c3cc4c(cc3OC)N(C)[C@H]3[C@@](O)(C(=O)OC)[C@H](OC(C)=O)[C@]5(CC)CC=CN6CC[C@]43[C@@H]65)C2)C1` are 300 nM and 300 nM.
As for `CCC1=C[C@H]2CN(C1)Cc1c([nH]c3ccc(C(C)=O)cc13)[C@@](C(=O)OC)(c1cc3c(cc1OC)N(C)[C@H]1[C@@](O)(C(=O)OC)[C@H](OC(C)=O)[C@]4(CC)CC=CN5CC[C@]31[C@@H]54)C2`, the GI50 with HeLa is 4 nM; in the assay on MCF7, 20 nM.
On to `CCSc1ccc2[nH]c3c(c2c1)CN1CC(CC)=C[C@@H](C1)C[C@]3(C(=O)OC)c1cc2c(cc1OC)N(C)[C@H]1[C@@](O)(C(=O)OC)[C@H](OC(C)=O)[C@]3(CC)CC=CN4CC[C@]21[C@@H]43`, for which the GI50 with HeLa came to 5 nM; in the assay with MCF7, 20 nM.
Turning to `CC[C@]1(O)C[C@H]2CN(CCc3c([nH]c4ccc(C)cc34)[C@@](C(=O)OC)(c3cc4c(cc3OC)N(C=O)[C@H]3[C@@](O)(C(=O)OC)[C@H](OC(C)=O)[C@]5(CC)CC=CN6CC[C@]43[C@@H]65)C2)C1`, the results for the GI50 in the assay with HeLa and in the assay on MCF7 were 1 nM and 3 nM, respectively.
`CC[C@]1(O)C[C@H]2CN(CCc3c([nH]c4ccc(-c5ccccc5)cc34)[C@@](C(=O)OC)(c3cc4c(cc3OC)N(C)[C@H]3[C@@](O)(C(=O)OC)[C@H](OC(C)=O)[C@]5(CC)CC=CN6CC[C@]43[C@@H]65)C2)C1`: the GI50 in the assay on HeLa came to 400 nM; in the assay with MCF7, 300 nM.
For `CC[C@]1(O)C[C@H]2CN(CCc3c([nH]c4ccc(C(=O)O)cc34)[C@@](C(=O)OC)(c3cc4c(cc3OC)N(C)[C@H]3[C@@](O)(C(=O)OC)[C@H](OC(C)=O)[C@]5(CC)CC=CN6CC[C@]43[C@@H]65)C2)C1`, the GI50 in the assay with HeLa and in the assay with MCF7 was > 1000 nM each time.
`CCC1=C[C@H](C[C@](C(=O)OC)(c2cc3c(cc2OC)N(C)[C@H]2[C@@](O)(C(=O)OC)[C@H](OC(C)=O)[C@]4(CC)CC=CN5CC[C@]32[C@@H]54)c2[nH]c3ccc(N)cc3c2CC)CNC1`: the figures for the GI50 in the assay with HeLa and with MCF7 were 300 nM and 600 nM, respectively.
Take `CC[C@]1(O)C[C@H]2CN(CCc3c([nH]c4ccc(N)cc34)[C@@](C(=O)OC)(c3cc4c(cc3OC)N(C)[C@H]3[C@@](O)(C(=O)OC)[C@H](OC(C)=O)[C@]5(CC)CC=CN6CC[C@]43[C@@H]65)C2)C1`: the 50% growth inhibitory concentration (GI50) in the assay on HeLa and in the assay on MCF7 was 200 nM in each case.
For the molecule `C#Cc1ccc2[nH]c3c(c2c1)CCN1C[C@H](C[C@@](O)(CC)C1)C[C@]3(C(=O)OC)c1cc2c(cc1OC)N(C)[C@H]1[C@@](O)(C(=O)OC)[C@H](OC(C)=O)[C@]3(CC)CC=CN4CC[C@]21[C@@H]43`, the GI50 amounted to 20 nM in the assay with HeLa and 5 nM in the assay on MCF7.
Turning to `CCC1=C[C@H]2CN(C1)Cc1c([nH]c3ccc(-c4ccccc4)cc13)[C@@](C(=O)OC)(c1cc3c(cc1OC)N(C)[C@H]1[C@@](O)(C(=O)OC)[C@H](OC(C)=O)[C@]4(CC)CC=CN5CC[C@]31[C@@H]54)C2`, the GI50 with HeLa amounted to 70 nM; with MCF7, 300 nM.
With `CC[C@]1(O)C[C@H]2CN(CCc3c([nH]c4ccc(C(N)=O)cc34)[C@@](C(=O)OC)(c3cc4c(cc3OC)N(C)[C@H]3[C@@](O)(C(=O)OC)[C@H](OC(C)=O)[C@]5(CC)CC=CN6CC[C@]43[C@@H]65)C2)C1`, the GI50 in the assay on HeLa and in the assay with MCF7 was > 1000 nM throughout.
On to `CC[C@]1(O)C[C@H]2CN(CCc3c([nH]c4ccc(C(C)=O)cc34)[C@@](C(=O)OC)(c3cc4c(cc3OC)N(C)[C@H]3[C@@](O)(C(=O)OC)[C@H](OC(C)=O)[C@]5(CC)CC=CN6CC[C@]43[C@@H]65)C2)C1`, for which the GI50 in the assay on HeLa was determined as 200 nM; in the assay with MCF7, 100 nM.
As for `CCSc1ccc2[nH]c3c(c2c1)CCN1C[C@H](C[C@@](O)(CC)C1)C[C@]3(C(=O)OC)c1cc2c(cc1OC)N(C)[C@H]1[C@@](O)(C(=O)OC)[C@H](OC(C)=O)[C@]3(CC)CC=CN4CC[C@]21[C@@H]43`, the values for the GI50 in the assay on HeLa and with MCF7 were 2 nM and 3 nM, respectively.
Taken in the same sequence, the figures for `CCC1=C[C@H]2CN(C1)Cc1c([nH]c3ccc(C(=O)OC)cc13)[C@@](C(=O)OC)(c1cc3c(cc1OC)N(C)[C@H]1[C@@](O)(C(=O)OC)[C@H](OC(C)=O)[C@]4(CC)CC=CN5CC[C@]31[C@@H]54)C2` were 30 nM and 50 nM.
With `CC[C@]1(O)C[C@H]2CN(CCc3c([nH]c4ccccc34)[C@@](C(=O)OC)(c3cc4c(cc3OC)N(C=O)[C@H]3[C@@](O)(C(=O)OC)[C@H](OC(C)=O)[C@]5(CC)C=CCN6CC[C@]43[C@@H]65)C2)C1` [VINCRISTINE], the GI50 in the assay with HeLa turned out to be 1.7 nM; with MCF7, 1.5 nM.

Values taken from ChEMBL document CHEMBL1136853, “Synthesis and SAR of vinca alkaloid analogues” (Bioorg Med Chem Lett, 2009).
